Laboratory results from US9556165B2 (priority 2012, dated 2017).
Values after ≈ are worked out from the molar mass of the structure shown. Like-named read-outs stand apart in the source and are kept apart here.

Experiments:
Type in all cases: cell-based
[1] = tested on: E. cloacae 34654; test: MIC determination, broth microdilution (CLSI); settings: Enterobacter cloacae, 34654, strain 3
[2] = tested on: Bacteria; test: MIC determination in combination with β-lactamase inhibitors (constant 4 μg/mL)
[3] = tested on: P. aeruginosa PAO1; test: MIC determination, broth microdilution (CLSI); settings: Pseudomonas aeruginosa, PAO1, strain 6
[4] = tested on: M. morganii 126/3048; test: MIC determination, broth microdilution (CLSI); settings: Morganella morganii, 126/3048, strain 5
[5] = tested on: B. fragilis 6688; test: MIC determination, broth microdilution (CLSI); settings: Bacteroides fragilis, 6688, strain 15; broth microdilution; read-out: MIC strain 15 (B. fragilis 6688)
[6] = tested on: S. pneumoniae 113; test: MIC determination, broth microdilution (CLSI); settings: Streptococcus pneumoniae, 113, strain 13; broth microdilution; read-out: MIC strain 13 (S. pneumoniae 113)
[7] = tested on: A. baumannii ATCC15308; test: MIC determination, broth microdilution (CLSI); settings: Acinetobacter baumannii, ATCC15308, strain 9
[8] = tested on: E. coli ATCC25922; test: MIC determination, broth microdilution (CLSI); settings: Escherichia coli, ATCC25922, strain 1
[9] = tested on: K. pneumoniae 60; test: MIC determination, broth microdilution (CLSI); settings: Klebsiella pneumoniae, 60, strain 2
[10] = tested on: P. aeruginosa 2297 (AmpC wt); test: MIC determination, broth microdilution (CLSI); settings: Pseudomonas aeruginosa, strain 7
[11] = tested on: C. freundii K21/3034; test: MIC determination, broth microdilution (CLSI); settings: Citrobacter freundii, K21/3034, strain 4
[12] = tested on: S. aureus 133; test: MIC determination, broth microdilution (CLSI)
[13] = tested on: H. influenzae ATCC 49247; test: MIC determination, broth microdilution (CLSI); settings: Haemophilus influenzae, ATCC49247, strain 12; broth microdilution; read-out: MIC strain 12 (H. influenzae ATCC 49247)
[14] = tested on: P. aeruginosa 2297-con (AmpC derepressed); test: MIC determination, broth microdilution (CLSI); settings: Pseudomonas aeruginosa, read-out: strain 8 MIC, strain 8
[15] = tested on: E. coli J62; test: MIC determination, broth microdilution (CLSI); settings: Escherichia coli, J62, strain 17; broth microdilution; read-out: MIC strain 17 (E. coli J62)
[16] = tested on: E. coli J62-TEM-3; test: MIC determination, broth microdilution (CLSI); settings: Escherichia coli, J62TEM3, read-out: MIC strain 18 (E. coli J62-TEM-3), strain 18; broth microdilution
[17] = Staphylococcus aureus, 133, strain 11, read-out: strain 11 MIC
[18] = Staphylococcus aureus, 133, strain 14, broth microdilution, read-out: MIC strain 14 (S. aureus 133)

SMILES | MIC [1] [mg/L] | MIC strain 19 (E. coli J62-TEM-3 + 4 μg/mL clavulanic acid) [2] [mg/L] | MIC strain 20 (E. coli J62-TEM-3 + 4 μg/mL sulbactam) [2] [mg/L] | MIC strain 21 (E. coli J62-TEM-3 + 4 μg/mL tazobactam) [2] [mg/L] | MIC [3] [mg/L] | MIC [4] [mg/L] | MIC [5] [mg/L] | MIC [6] [mg/L] | MIC [7] [mg/L] | MIC [8] [mg/L] | MIC [9] [mg/L] | MIC [10] [mg/L] | MIC [11] [mg/L] | MIC [12, 17] [mg/L] | MIC [12, 18] [mg/L] | MIC [13] [mg/L] | MIC [14] [mg/L] | MIC [15] [mg/L] | MIC [16] [mg/L]
C[C@H]1[C@H](NC(=O)/C(=N\OCCOc2ccc(C(=N)N)cc2)c2nsc(N)n2)C(=O)N1S(=O)(=O)O [Example 52] | 1 (≈ 1.95 µM) | 2 | 2 | 2 | 4 (≈ 7.8 µM) | 1 (≈ 1.95 µM) | 32 (≈ 62.4 µM) | 16 (≈ 31.2 µM) | 1 (≈ 1.95 µM) | 1 (≈ 1.95 µM) | 0.5 (≈ 0.976 µM) | 4 (≈ 7.8 µM) | 0.25 (≈ 0.488 µM) | 2 (≈ 3.9 µM) | 8 (≈ 15.6 µM) | 8 (≈ 15.6 µM) | 16 (≈ 31.2 µM) | 2 (≈ 3.9 µM) | 
C[C@H]1[C@H](NC(=O)/C(=N\OCCCOc2ccc(NC(=N)N)cc2)c2csc(N)n2)C(=O)N1S(=O)(=O)O [Example 51, (2S,3S)-3-{[(2Z)-2-(2-Amino-1,3-thiazol-4-yl)-2-{[3-(4-carbamimidamidophenoxy)propoxy]imino}acetyl]amino}-2-methyl-4-oxoazetidine-1-sulfonic acid] | 2 (≈ 3.7 µM) | 4 | 4 | 4 | 16 (≈ 29.6 µM) | 2 (≈ 3.7 µM) | 16 (≈ 29.6 µM) | 1 (≈ 1.85 µM) | 4 (≈ 7.4 µM) | 2 (≈ 3.7 µM) | 4 (≈ 7.4 µM) | 16 (≈ 29.6 µM) | 2 (≈ 3.7 µM) | 0.5 (≈ 0.925 µM) | 8 (≈ 14.8 µM) | 0.5 (≈ 0.925 µM) | 32 (≈ 59.2 µM) | 4 (≈ 7.4 µM) | 
C[C@H]1[C@H](NC(=O)/C(=N\OCCOc2ccc(NC(=N)N)cc2)c2csc(N)n2)C(=O)N1S(=O)(=O)O [Example 50, (2S,3S)-3-{[(2Z)-2-(2-Amino-1,3-thiazol-4-yl)-2-{[2-(4-carbamimidamidophenoxy)ethoxy]imino}acetyl]amino}-2-methyl-4-oxoazetidine-1-sulfonic acid] | 1 (≈ 1.9 µM) | 1 | 1 | 1 | 8 (≈ 15.2 µM) | 0.5 (≈ 0.95 µM) | 16 (≈ 30.4 µM) | 1 (≈ 1.9 µM) | 2 (≈ 3.8 µM) | 0.5 (≈ 0.95 µM) | 0.5 (≈ 0.95 µM) | 16 (≈ 30.4 µM) | 1 (≈ 1.9 µM) | 0.125 (≈ 0.237 µM) | 8 (≈ 15.2 µM) | 0.25 (≈ 0.475 µM) | 32 (≈ 60.8 µM) | 1 (≈ 1.9 µM) | 
C[C@@H]1[C@H](NC(=O)/C(=N\OCCCOc2ccc(C(=N)N)cc2)c2csc(N)n2)C(=O)N1S(=O)(=O)O [Example 48, (2R,3S)-3-{[(2Z)-2-(2-Amino-1,3-thiazol-4-yl)-2-{[3-(4-carbamimidoylphenoxy)propoxy]imino}acetyl]amino}-2-methyl-4-oxoazetidine-1-sulfonic acid] | 4 (≈ 7.61 µM) | 2 | 2 | 2 | 8 (≈ 15.2 µM) | 1 (≈ 1.9 µM) | 16 (≈ 30.4 µM) | 1 (≈ 1.9 µM) | 8 (≈ 15.2 µM) | 2 (≈ 3.81 µM) | 4 (≈ 7.61 µM) | 16 (≈ 30.4 µM) | 2 (≈ 3.81 µM) | 0.5 (≈ 0.951 µM) | 4 (≈ 7.61 µM) | 0.5 (≈ 0.951 µM) | 32 (≈ 60.9 µM) | 2 (≈ 3.81 µM) | 
CC1(C)[C@H](NC(=O)/C(=N\O[C@H](COc2ccc(C(=N)NCCNc3ncccn3)cc2)C(=O)O)c2csc(N)n2)C(=O)N1OS(=O)(=O)O [Example 111, (2R)-2-({[(1Z)-1-(2-Amino-1,3-thiazol-4-yl)-2-{[(3S)-2,2-dimethyl-4-oxo-1-(sulfooxy)-azetidin-3-yl]amino}-2-oxoethylidene]amino}oxy)-3-(4-{N-[2-(pyrimidin-2-ylamino)ethyl]carbamimidoyl}phenoxy)propanoic acid] | 16 (≈ 22.6 µM) | 8 | 8 | 8 | 32 (≈ 45.3 µM) | 8 (≈ 11.3 µM) |  | 2 (≈ 2.83 µM) | 32 (≈ 45.3 µM) | 8 (≈ 11.3 µM) | 8 (≈ 11.3 µM) | 32 (≈ 45.3 µM) | 4 (≈ 5.66 µM) |  |  | 0.25 (≈ 0.354 µM) | 32 (≈ 45.3 µM) | 16 (≈ 22.6 µM) | 32 (≈ 45.3 µM)
C[C@H]1[C@H](NC(=O)/C(=N\OCCOc2ccc(C(=N)N)cc2Br)c2csc(N)n2)C(=O)N1S(=O)(=O)O [Example 49, (2S,3S)-3-{[(2Z)-2-(2-Amino-1,3-thiazol-4-yl)-2-{[2-(2-bromo-4-carbamimidoyl-phenoxy)ethoxy]imino}acetyl]amino}-2-methyl-4-oxoazetidine-1-sulfonic acid] | 2 (≈ 3.39 µM) | 2 | 2 | 2 | 8 (≈ 13.5 µM) | 2 (≈ 3.39 µM) | 16 (≈ 27.1 µM) | 0.5 (≈ 0.847 µM) | 4 (≈ 6.77 µM) | 1 (≈ 1.69 µM) | 2 (≈ 3.39 µM) | 16 (≈ 27.1 µM) | 1 (≈ 1.69 µM) | 0.125 (≈ 0.212 µM) | 16 (≈ 27.1 µM) | 0.5 (≈ 0.847 µM) | 32 (≈ 54.2 µM) | 2 (≈ 3.39 µM) | 
C[C@H]1[C@H](NC(=O)/C(=N\OCc2ccc(C(=N)N)cc2)c2csc(N)n2)C(=O)N1S(=O)(=O)O [Example 55, (2S,3S)-3-{[(2Z)-2-(2-Amino-1,3-thiazol-4-yl)-2-{[(4-carbamimidoylbenzyl)oxy]imino}-acetyl]amino}-2-methyl-4-oxoazetidine-1-sulfonic acid] | 0.5 (≈ 1.04 µM) | 1 | 0.5 | 0.5 | 16 (≈ 33.2 µM) | 0.25 (≈ 0.519 µM) | 8 (≈ 16.6 µM) | 0.125 (≈ 0.26 µM) | 4 (≈ 8.31 µM) | 0.5 (≈ 1.04 µM) | 1 (≈ 2.08 µM) |  | 0.25 (≈ 0.519 µM) | 0.25 (≈ 0.519 µM) | 8 (≈ 16.6 µM) | 1 (≈ 2.08 µM) | 32 (≈ 66.5 µM) | 1 (≈ 2.08 µM) | 
